Measurements: patent US8466134B1, “Aqueous compositions containing corticosteroids for nasal and pulmonary delivery” (Athena Neurosciences, Inc., priority 1998, dated 2013)

Test: Storage stability of budesonide formulations, % recovery (Examples 6 and 8)
Type: physicochemical
Conditions: pH between about 3 and about 8, more preferably about 3.5 to about 6
Description: After dilution all samples were sterilized by filtering them through a 0.2 μm Millipore sterile filters and placed in sterile low density polyethylene plastic vials. These formulations were kept in humidity and temperature controlled chambers at 5° C. 25° C./60% RH and 40° C./75% RH (where RH is the relative humidity). The % recovery after 13.5 weeks from time zero is presented for each formulation and storage condition, in the following table: […]
The formulations described in Examples 6 and 7 were also prepared using lower buffer concentrations of 10 mM, 5 mM, and 1 mM with similar stability results.

- stability of aqueous compositions at lower pH ranges: superior stability
Structure (SMILES): CCCC1O[C@@H]2C[C@H]3[C@@H]4CCC5=CC(=O)C=C[C@]5(C)[C@H]4[C@@H](O)C[C@]3(C)[C@]2(C(=O)CO)O1 (stereo partly shown) [Budesonide, budesonide]
